Measurements from patent US20260015325A1, “ALKOXY HETEROARYL- CARBOXAMIDE OR THIOAMIDE COMPOUNDS” (SYNGENTA CROP PROTECTION AG, priority 2022, published 2026).

How the values were obtained:
Assay type in all cases: in vivo
[1] = system: Myzus persicae (Green Peach Aphid); assay: Myzus persicae (Green Peach Aphid): intrinsic activity, sucrose solution; conditions: 120 h, test rate of 12 ppm, intrinsic, mixed with sucrose solution under Parafilm, 5 days after infestation, read-out: mortality
Description: Example B8: Myzus persicae (Green Peach Aphid). Intrinsic Activity
Test compounds prepared from 10′000 ppm DMSO stock solutions were applied by pipette into 24-well microtiter plates and mixed with sucrose solution. The plates were closed with a stretched Parafilm. A plastic stencil with 24 holes was placed onto the plate and infested pea seedlings were placed directly on the Parafilm. The infested plate was closed with a gel blotting paper and another plastic stencil and then turned upside down. The samples were assessed for mortality 5 days after infestation.

[2] = system: Tetranychus urticae (Two-Spotted Spider Mite); assay: whole plant or invertebrate; conditions: foliar, 192 h, application rate of 200 ppm, mixed population (mobile stages) on sprayed bean leaf discs, 8 days after infestation, read-out: mortality
Procedure: Example B11: Tetranychus urticae (Two-Spotted Spider Mite): Feeding/Contact Activity
Bean leaf discs on agar in 24-well microtiter plates were sprayed with aqueous test solutions prepared from 10′000 ppm DMSO stock solutions. After drying the leaf discs were infested with a mite population of mixed ages. The samples were assessed for mortality on mixed population (mobile stages) 8 days after infestation.

[3] = system: Myzus persicae (Green Peach Aphid); assay: Myzus persicae (Green Peach Aphid): feeding/contact activity, sunflower leaf discs; conditions: foliar, 144 h, application rate of 200 ppm, mixed ages on sprayed sunflower leaf discs, 6 days after infestation, read-out: mortality
Procedure: Example B6: Myzus persicae (Green Peach Aphid): Feeding/Contact Activity
Sunflower leaf discs were placed onto agar in a 24-well microtiter plate and sprayed with aqueous test solutions prepared from 10′000 ppm DMSO stock solutions. After drying, the leaf discs were infested with an aphid population of mixed ages. The samples were assessed for mortality 6 days after infestation.

[4] = system: Bemisia tabaci (Cotton White Fly); assay: Bemisia tabaci (Cotton White Fly): feeding/contact activity, cotton leaf discs; conditions: foliar, 144 h, application rate of 200 ppm, adult white flies on sprayed cotton leaf discs, 6 days after incubation, read-out: mortality
Procedure: Example B1: Bemisia tabaci (Cotton White Fly): Feeding/Contact Activity
Cotton leaf discs were placed on agar in 24-well microtiter plates and sprayed with aqueous test solutions prepared from 10′000 ppm DMSO stock solutions. After drying the leaf discs were infested with adult white flies. The samples were checked for mortality 6 days after incubation.

Row | SMILES | mortality at 12 ppm [1] | mortality at 200 ppm [2] | mortality at 200 ppm [3] | mortality at 200 ppm [4]
1 | C[C@@H](COc1cnc(Cl)c(C(=O)NC2CC2)c1)NS(=O)(=O)C(Cl)Cl [Compound P-4, 2-chloro-N-cyclopropyl-5-[(2S)-2-(dichloromethylsulfonylamino)propoxy]pyridine-3-carboxamide] | ≥ 80% | ≥ 80% | ≥ 80% | 
2 | C[C@@H](COc1cnc(Cl)c(C(=O)NC(C)(C)C)c1)NS(=O)(=O)C(F)(F)F [Compound P-11, N-tert-butyl-2-chloro-5-[(2S)-2-(trifluoromethylsulfonylamino)propoxy]pyridine-3-carboxamide] | ≥ 80% | ≥ 80% | ≥ 80% | 
3 | C[C@@H](COc1cnc(Cl)c(C(=O)Nc2ncc(C#N)cc2F)c1)NS(=O)(=O)C(F)(F)F [Compound P-18, 2-chloro-N-(5-cyano-3-fluoro-2-pyridyl)-5-[(2S)-2-(trifluoromethylsulfonylamino)propoxy]pyridine-3-carboxamide] |  | ≥ 80% |  | 
4 | C[C@@H](COc1cnc(Cl)c(C(=O)Nc2ncc(Cl)cc2F)c1)NS(=O)(=O)C(F)(F)F [Compound P-19, 2-chloro-N-(5-chloro-3-fluoro-2-pyridyl)-5-[(2S)-2-(trifluoromethylsulfonylamino)propoxy]pyridine-3-carboxamide] | ≥ 80% |  |  | 
5 | C[C@@H](COc1cnc(Cl)c(C(=O)Nc2ccc(S(C)(=O)=O)cc2F)c1)NS(=O)(=O)C(F)(F)F [Compound P-24, 2-chloro-N-(2-fluoro-4-methylsulfonyl-phenyl)-5-[(2S)-2-(trifluoromethylsulfonylamino)propoxy]pyridine-3-carboxamide] |  | ≥ 80% |  | 
6 | Cc1ncc(OC[C@H](C)NS(=O)(=O)C(F)(F)F)cc1C(=O)NCc1ncccc1Cl [Compound P-32, N-[(3-chloro-2-pyridyl)methyl]-2-methyl-5-[(2S)-2-(trifluoromethylsulfonylamino)propoxy]pyridine-3-carboxamide] |  | ≥ 80% | ≥ 80% | 
7 | Cc1ncc(OC[C@H](C)NS(=O)(=O)C(F)(F)F)cc1C(=O)Nc1ccc(F)cc1F [Compound P-33, N-(2,4-difluorophenyl)-2-methyl-5-[(2S)-2-(trifluoromethylsulfonylamino)propoxy]pyridine-3-carboxamide] |  | ≥ 80% |  | 
8 | Cc1ncc(OC[C@H](C)NS(=O)(=O)C(F)(F)F)cc1C(=O)NC1CC(F)(F)C1 [Compound P-37, N-(3,3-difluorocyclobutyl)-2-methyl-5-[(2S)-2-(trifluoromethylsulfonylamino)propoxy]pyridine-3-carboxamide] |  | ≥ 80% |  | 
9 | Cc1ncc(OC[C@H](C)NS(=O)(=O)C(F)(F)F)cc1C(=O)NCC(F)F [Compound P-39, N-(2,2-difluoroethyl)-2-methyl-5-[(2S)-2-(trifluoromethylsulfonylamino)propoxy]pyridine-3-carboxamide] |  | ≥ 80% |  | 
10 | C[C@@H](COc1cnc(Cl)c(C(=O)NCc2ccccc2)c1)NS(=O)(=O)C(F)(F)F [Compound P-44, N-benzyl-2-chloro-5-[(2S)-2-(trifluoromethylsulfonylamino)propoxy]pyridine-3-carboxamide] |  | ≥ 80% |  | 
11 | CC(NC(=O)c1cc(OC[C@H](C)NS(=O)(=O)C(F)(F)F)cnc1Cl)C1CC1 (stereo partly drawn) [Compound P-45, 2-chloro-N-(1-cyclopropylethyl)-5-[(2S)-2-(trifluoromethylsulfonylamino)propoxy]pyridine-3-carboxamide] | ≥ 80% | ≥ 80% | ≥ 80% | 
12 | C[C@@H](COc1cnc(Cl)c(C(=O)NCC2(C#N)CC2)c1)NS(=O)(=O)C(F)(F)F [Compound P-46, 2-chloro-N-[(1-cyanocyclopropyl)methyl]-5-[(2S)-2-(trifluoromethylsulfonylamino)propoxy]pyridine-3-carboxamide] |  |  | ≥ 80% | ≥ 80%
13 | CCN1OC[C@H](NC(=O)c2cc(OC[C@H](C)NS(=O)(=O)C(F)(F)F)cnc2Cl)C1=O [Compound P-49, 2-chloro-N-[(4S)-2-ethyl-3-oxo-isoxazolidin-4-yl]-5-[(2S)-2-(trifluoromethylsulfonylamino)propoxy]pyridine-3-carboxamide] |  | ≥ 80% | ≥ 80% | 
14 | C[C@@H](COc1cnc(Cl)c(C(=O)NC2(C)CCOC2)c1)NS(=O)(=O)C(F)(F)F (stereo partly drawn) [Compound P-51, 2-chloro-N-(3-methyltetrahydrofuran-3-yl)-5-[(2S)-2-(trifluoromethylsulfonylamino)propoxy]pyridine-3-carboxamide] |  | ≥ 80% |  | 
15 | C[C@@H](COc1cnc(Cl)c(C(=O)NCC(F)F)c1)NS(=O)(=O)C(F)(F)F [Compound P-55, 2-chloro-N-(2,2-difluoroethyl)-5-[(2S)-2-(trifluoromethylsulfonylamino)propoxy]pyridine-3-carboxamide] | ≥ 80% |  | ≥ 80% | 
16 | Cc1cnc(OC[C@H](C)NS(=O)(=O)C(F)(F)F)cc1C(=O)NCc1ccccc1 [Compound P-77, N-benzyl-5-methyl-2-[(2S)-2-(trifluoromethylsulfonylamino)propoxy]pyridine-4-carboxamide] |  | ≥ 80% |  | 
17 | CCN1OC[C@@H](NC(=O)c2cc(OC[C@H](C)N(COC)S(=O)(=O)C(F)(F)F)ncc2C)C1=O [Compound P-78, N-[(4R)-2-ethyl-3-oxo-isoxazolidin-4-yl]-2-[(2S)-2-[methoxymethyl(trifluoromethylsulfonyl)amino]propoxy]-5-methyl-pyridine-4-carboxamide] |  | ≥ 80% | ≥ 80% | 
18 | COCN([C@@H](C)COc1cc(C(=O)NC2(C#N)CC2)c(C)cn1)S(=O)(=O)C(F)(F)F [Compound P-79, N-(1-cyanocyclopropyl)-2-[(2S)-2-[methoxymethyl(trifluoromethylsulfonyl)amino]propoxy]-5-methyl-pyridine-4-carboxamide] |  | ≥ 80% |  | 
19 | Cc1cnc(OC[C@H](C)NS(=O)(=O)C(F)(F)F)cc1C(=O)NCC(F)(F)F [Compound P-80, 5-methyl-N-(2,2,2-trifluoroethyl)-2-[(2S)-2-(trifluoromethylsulfonylamino)propoxy]pyridine-4-carboxamide] |  | ≥ 80% |  | 
20 | COCN([C@@H](C)COc1cc(C(=O)NC2CC2)c(Br)cn1)S(=O)(=O)C(F)(F)F [Compound P-81, 5-bromo-N-cyclopropyl-2-[(2S)-2-[methoxymethyl(trifluoromethylsulfonyl)amino]propoxy]pyridine-4-carboxamide] | ≥ 80% |  |  | 
21 | C[C@@H](COc1cc(C(=O)NC2(C#N)CC2)c(Br)cn1)NS(=O)(=O)C(F)(F)F [Compound P-86, 5-bromo-N-(1-cyanocyclopropyl)-2-[(2S)-2-(trifluoromethylsulfonylamino)propoxy]pyridine-4-carboxamide] |  |  |  | ≥ 80%
22 | C[C@@H](COc1cc(C(=O)NC2CC2)c(Cl)cn1)NS(=O)(=O)C(F)(F)F [Compound P-87, 5-chloro-N-cyclopropyl-2-[(2S)-2-(trifluoromethylsulfonylamino)propoxy]pyridine-4-carboxamide] | ≥ 80% | ≥ 80% | ≥ 80% | 
